Holding throughout (format): in vivo, SD rat
In assay [1] the test system is ovariectomized osteoporotic rats (去卵巢骨质疏松大鼠). The assay is described as follows: Bone mineral density (total and trabecular) in ovariectomized osteoporotic rats (Table 2). The note with it: oral once daily, 1 month; calcitriol 5 μg/kg, emodin 5 μg/kg, calcitriol + emodin 5 μg/kg; right tibia.
For assay [2] the test system is unchanged. The assay is described as follows: Bone mineral content (total and trabecular) in ovariectomized osteoporotic rats (Table 3). The following applies: oral once daily, 1 month; calcitriol 5 μg/kg, emodin 5 μg/kg, calcitriol + emodin 5 μg/kg; right tibia.
Assay [3] shares this test system. The assay is described as follows: Serum calcitonin in ovariectomized osteoporotic rats, radioimmunoassay (Table 4).
The test system is the same in assay [4]. Description: Osteocalcin in ovariectomized osteoporotic rats, radioimmunoassay (Table 5).
Assay [5] shares this test system. Description: Serum estradiol in ovariectomized osteoporotic rats, radioimmunoassay (Table 6).
For assay [6] the test system is unchanged. The assay is described as follows: Serum calcium in ovariectomized osteoporotic rats (Table 7). The following applies: for serum calcium content (result in words): compared with negative control group.
The test system is the same in assay [7]. The assay is described as follows: Serum phosphorus in ovariectomized osteoporotic rats (Table 8). The note with it: for serum phosphorus content (result in words): compared with negative control group.
Assay [8] shares this test system. Description: Serum alkaline phosphatase in ovariectomized osteoporotic rats (Table 9). The note with it: three months after surgery, compared with negative control group.
Assay [9] shares this test system. The assay is described as follows: Uterine wet weight in ovariectomized osteoporotic rats (Table 10). The following applies: three months after surgery; for uterine wet weight (result in words): compared with negative control group; for uterine wet weight: oral once daily, 1 month, nilestriol 1 mg/kg, calcitriol 5 μg/kg, emodin 5 μg/kg, calcitriol + emodin 5 μg/kg.

Where [10] appears, read: three months after surgery, oral once daily, 1 month, nilestriol 1 mg/kg, calcitriol 5 μg/kg, emodin 5 μg/kg, calcitriol + emodin 5 μg/kg.

Structures are written as SMILES.

For the molecule `C=C1/C(=C\C=C2/CCC[C@]3(C)[C@@H]([C@H](C)CCCC(C)(C)O)CC[C@@H]23)C[C@@H](O)C[C@@H]1O` [骨化三醇组, 9,10-开环胆甾-5Z,7E,10(19)-三烯-1α,3β,25-三醇], the “bone mineral density (result in words)” value in assay [1] was “产生一定的增强骨密度的作用”. Also, the “bone mineral content (result in words)” value in [2] is listed as “产生一定的提高骨含量的作用”. Moreover, the serum calcitonin content was 241.23 ± 11.43 ng/L in assay [3] (before surgery (baseline)) and 321.34 ± 13.43 ng/L in [3] (setting [10]). Moreover, in assay [3] (three months after surgery), the “serum calcitonin content (result in words)” value is on record as “血清降钙素含量上升”. In addition, the osteocalcin content was determined as 3.22 ± 1.22 ng/L in assay [4] (before surgery (baseline)) and 3.45 ± 1.21 ng/L in assay [4] (setting [10]). For the same molecule, the “osteocalcin content (result in words)” value in assay [4] (three months after surgery) is recorded as “骨钙素含量上升”. Further, the serum estradiol content was 13.21 ± 1.56 pg/mL in assay [5] (before surgery (baseline)) and 15.34 ± 1.53 pg/mL in [5] (setting [10]). Further, the “serum estradiol content (result in words)” value in [5] (three months after surgery) is given as “血清雌二醇含量上升”. For the same molecule, the calcium content in assay [6] (before surgery (baseline)) was determined as 4.10 ± 0.54 mmol/L; in [6] (setting [10]), 4.24 ± 0.41 mmol/L. The “serum calcium content (result in words)” value in assay [6] (three months after surgery) is given as “血清钙和磷含量与阴性对照组相比上升”. The phosphorus content in assay [7] (before surgery (baseline)) was 1.61 ± 0.38 mmol/L; in assay [7] (setting [10]), 1.71 ± 0.53 mmol/L. Also, the “serum phosphorus content (result in words)” value (from here on “serum phosphorus content”) in assay [7] (three months after surgery) is recorded as “血清钙和磷含量与阴性对照组相比上升”. The “serum alkaline phosphatase content (result in words)” value (“serum alkaline phosphatase content” for short) in [8] is listed as “与阴性对照组相比也出现下降”. In addition, in assay [9], the “uterine wet weight (result in words)” value was “子宫湿重明显高于阴性对照组”. Moreover, the uterine wet weight in assay [9] is 90.43 ± 10.43 mg.

Consider `Cc1cc(O)c2c(c1)C(=O)c1cc(O)cc(O)c1C2=O` [大黄素组, 大黄素], for which, in assay [1], the “bone mineral density (result in words)” value is “产生一定的增强骨密度的作用”. Also, the “bone mineral content (result in words)” value in [2] is recorded as “产生一定的提高骨含量的作用”. The values for the serum calcitonin content in assay [3] (before surgery (baseline)) and in assay [3] (setting [10]) were 222.43 ± 19.43 ng/L and 265.24 ± 22.43 ng/L, respectively. For the same molecule, the “serum calcitonin content (result in words)” value in [3] (three months after surgery) was “血清降钙素含量上升”. Besides, the osteocalcin content came to 3.09 ± 1.21 ng/L in assay [4] (before surgery (baseline)) and 3.38 ± 0.98 ng/L in [4] (setting [10]). Moreover, the “osteocalcin content (result in words)” value in assay [4] (three months after surgery) was “骨钙素含量上升”. For the same molecule, the serum estradiol content in [5] (before surgery (baseline)) turned out to be 12.87 ± 2.01 pg/mL; in [5] (setting [10]), 14.67 ± 1.76 pg/mL. Also, in assay [5] (three months after surgery), the “serum estradiol content (result in words)” value is reported as “血清雌二醇含量上升”. Also, the calcium content in [6] (before surgery (baseline)) stood at 4.21 ± 0.24 mmol/L; in [6] (setting [10]), 4.21 ± 0.56 mmol/L. Besides, the “serum calcium content (result in words)” value in assay [6] (three months after surgery) is on record as “血清钙和磷含量与阴性对照组相比上升”. The values for the phosphorus content in [7] (before surgery (baseline)) and in assay [7] (setting [10]) were 1.58 ± 0.43 mmol/L and 1.73 ± 0.65 mmol/L, respectively. The “serum phosphorus content” value in assay [7] (three months after surgery) is reported as “血清钙和磷含量与阴性对照组相比上升”. Besides, the “serum alkaline phosphatase content” value in assay [8] was “与阴性对照组相比也出现下降”. For the same molecule, the “uterine wet weight (result in words)” value in assay [9] is recorded as “子宫湿重明显高于阴性对照组”. Besides, in [9], the uterine wet weight was 89.34 ± 19.32 mg.

Turning to `C#C[C@]1(O)[C@H](O)C[C@H]2[C@@H]3CCc4cc(OC5CCCC5)ccc4[C@H]3CC[C@@]21C` [阳性对照组, 尼尔雌醇], the serum calcitonin content was 231.35 ± 20.11 ng/L in assay [3] (before surgery (baseline)) and 459.34 ± 11.43 ng/L in assay [3] (setting [10]). The osteocalcin content was 2.98 ± 0.89 ng/L in [4] (before surgery (baseline)) and 4.12 ± 1.32 ng/L in assay [4] (setting [10]). Moreover, the serum estradiol content in assay [5] (before surgery (baseline)) was found to be 12.65 ± 2.21 pg/mL; in assay [5] (setting [10]) it was 20.43 ± 1.54 pg/mL. In addition, the calcium content came to 4.19 ± 0.43 mmol/L in assay [6] (before surgery (baseline)) and 4.65 ± 0.12 mmol/L in assay [6] (setting [10]). Also, the “serum calcium content (result in words)” value in assay [6] (three months after surgery) was “血清钙和磷含量与阴性对照组相比上升”. Moreover, the phosphorus content amounted to 1.55 ± 0.45 mmol/L in assay [7] (before surgery (baseline)) and 1.87 ± 0.46 mmol/L in [7] (setting [10]). For the same molecule, in [7] (three months after surgery), the “serum phosphorus content” value is reported as “血清钙和磷含量与阴性对照组相比上升”. In addition, the “serum alkaline phosphatase content” value in [8] is on record as “与阴性对照组相比出现下降”. For the same molecule, the “uterine wet weight (result in words)” value in assay [9] is on record as “子宫湿重明显高于阴性对照组”. The uterine wet weight in assay [9] is 118.43 ± 12.43 mg.
